Test results taken from the NIST ThermoML archive (doi:10.1016/j.tca.2013.08.002).
± gives the expanded uncertainty stated by the source.

Test: mn = molality of the nth substance listed, in mol/kg
Details: 101 kPa, Liquid; for speed of sound: Frequency=1.999 MHz, Sing-around technique in a fixed-path interferometer; for mass density: Vibrating tube method

C[N+](C)(C)CC(=O)[O-] [(trimethylammonio)acetate] + O
Details | mass density [kg/m3] | speed of sound [m/s]
288.15 K, m1 = 0.0482 | 1000.1 ± 2 | 1471.1 ± 10
288.15 K, m1 = 0.1063 | 1001.2 ± 2 | 1477.4 ± 10
288.15 K, m1 = 0.5027 | 1008.5 ± 2 | 1517.6 ± 10
288.15 K, m1 = 1.002 | 1016.8 ± 2 | 1562.8 ± 10
288.15 K, m1 = 1.504 | 1024.3 ± 2 | 1599.7 ± 10
288.15 K, m1 = 2.005 | 1030.9 ± 2 | 1628.1 ± 10
288.15 K, m1 = 2.519 | 1036.6 ± 2 | 1648.9 ± 10
288.15 K, m1 = 3.008 | 1041.8 ± 2 | 1658.3 ± 10
293.15 K, m1 = 0.0482 | 999.1 ± 2 | 1487.7 ± 10
293.15 K, m1 = 0.1063 | 1000.2 ± 2 | 1493.8 ± 10
293.15 K, m1 = 0.5027 | 1007.2 ± 2 | 1535.4 ± 10
293.15 K, m1 = 1.002 | 1015.1 ± 2 | 1580.7 ± 10
293.15 K, m1 = 1.504 | 1022.1 ± 2 | 1619.5 ± 10
293.15 K, m1 = 2.005 | 1028.1 ± 2 | 1649.8 ± 10
293.15 K, m1 = 2.519 | 1033.6 ± 2 | 1670.4 ± 10
293.15 K, m1 = 3.008 | 1038.5 ± 2 | 1680.1 ± 10
298.15 K, m1 = 0.0482 | 997.9 ± 2 | 1501.6 ± 10
298.15 K, m1 = 0.1063 | 998.9 ± 2 | 1507.6 ± 10
298.15 K, m1 = 0.5027 | 1005.6 ± 2 | 1547.2 ± 10
298.15 K, m1 = 1.002 | 1013.1 ± 2 | 1593.1 ± 10
298.15 K, m1 = 1.504 | 1019.9 ± 2 | 1630 ± 10
298.15 K, m1 = 2.005 | 1025.8 ± 2 | 1656.8 ± 10
298.15 K, m1 = 2.519 | 1031 ± 2 | 1674.5 ± 10
298.15 K, m1 = 3.008 | 1035.4 ± 2 | 1698.9 ± 10
303.15 K, m1 = 0.0482 | 996.6 ± 2 | 1514.1 ± 10
303.15 K, m1 = 0.1063 | 997.6 ± 2 | 1520 ± 10
303.15 K, m1 = 0.5027 | 1004.2 ± 2 | 1558.6 ± 10
303.15 K, m1 = 1.002 | 1011.6 ± 2 | 1602.3 ± 10
303.15 K, m1 = 1.504 | 1018 ± 2 | 1639.6 ± 10
303.15 K, m1 = 2.005 | 1023.5 ± 2 | 1669.8 ± 10
303.15 K, m1 = 2.519 | 1028.4 ± 2 | 1689.7 ± 10
303.15 K, m1 = 3.008 | 1032.8 ± 2 | 1715.2 ± 10
308.15 K, m1 = 0.0482 | 994.9 ± 2 | 1524.2 ± 10
308.15 K, m1 = 0.1063 | 995.9 ± 2 | 1529.9 ± 10
308.15 K, m1 = 0.5027 | 1002.5 ± 2 | 1567.5 ± 10
308.15 K, m1 = 1.002 | 1009.9 ± 2 | 1610.2 ± 10
308.15 K, m1 = 1.504 | 1016.4 ± 2 | 1648.1 ± 10
308.15 K, m1 = 2.005 | 1022 ± 2 | 1679.8 ± 10
308.15 K, m1 = 2.519 | 1027.1 ± 2 | 1700 ± 10
308.15 K, m1 = 3.008 | 1031.2 ± 2 | 1726.5 ± 10
313.15 K, m1 = 0.0482 | 993.1 ± 2 | 1533.4 ± 10
313.15 K, m1 = 0.1063 | 994.1 ± 2 | 1538.8 ± 10
313.15 K, m1 = 0.5027 | 1000.7 ± 2 | 1574.2 ± 10
313.15 K, m1 = 1.002 | 1007.9 ± 2 | 1615.7 ± 10
313.15 K, m1 = 1.504 | 1014.4 ± 2 | 1652.3 ± 10
313.15 K, m1 = 2.005 | 1019.9 ± 2 | 1682.8 ± 10
313.15 K, m1 = 2.519 | 1025 ± 2 | 1705.9 ± 10
313.15 K, m1 = 3.008 | 1029.1 ± 2 | 1737.1 ± 10
318.15 K, m1 = 0.0482 | 991.1 ± 2 | 1540.8 ± 10
318.15 K, m1 = 0.1063 | 992.1 ± 2 | 1546 ± 10
318.15 K, m1 = 0.5027 | 998.7 ± 2 | 1580.3 ± 10
318.15 K, m1 = 1.002 | 1006 ± 2 | 1620.9 ± 10
318.15 K, m1 = 1.504 | 1012.4 ± 2 | 1656.7 ± 10
318.15 K, m1 = 2.005 | 1018 ± 2 | 1688.3 ± 10
318.15 K, m1 = 2.519 | 1022.8 ± 2 | 1713.8 ± 10
318.15 K, m1 = 3.008 | 1027.3 ± 2 | 1743.7 ± 10
